In US9346809B2 (LEO PHARMA A/S, priority 2009, dated 2016):
pEC50: −log10 of the molar value. Like-named read-outs stand apart in the source and are kept apart here.

Legend:
Type in all cases: biochemical
[1] = target: T1, JAK1 (aa 850-1154, catalytic domain, GST-tag) (Homo sapiens, UniProt P23458); experiment: JAK kinase assay (HTRF, phosphorylation of TK substrate-biotin), JAK1; conditions: ATP at Km (7 μM)
T1 construct: JAK1 (aa 850-1154) and TYK2 (aa 871-1187) are expressed with an N-terminally fused GST-tag; GST (N); purchased Carna Biosciences, Inc; host or cells: baculovirus expression system
Method in brief: (§1)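 EC50 values come from HTRF detection of phospho-biotin-TK peptide (1 μM) after 20-30 min RT reactions in Hepes pH 7.0 buffer with 0.75% DMSO. ATP was at Km for each enzyme: 7 μM JAK1, 4 μM JAK2, 2 μM JAK3, 13 μM TYK2. SEB (50 nM) was added for JAK1 and TYK2 only.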

[2] = target: T2, JAK2 (catalytic domain, His-tag) (Homo sapiens, UniProt O60674); experiment: JAK kinase assay (HTRF, phosphorylation of TK substrate-biotin), JAK2; conditions: ATP at Km (4 μM)
T2 construct: All four purified enzymes contain only the catalytic domain; His (N); purchased Carna Biosciences, Inc; host or cells: baculovirus expression system
Method in brief: as §1

[3] = target: T3, JAK3 (catalytic domain, His-tag) (Homo sapiens, UniProt P52333); experiment: JAK kinase assay (HTRF, phosphorylation of TK substrate-biotin), JAK3; conditions: ATP at Km (2 μM)
T3 construct: All four purified enzymes contain only the catalytic domain; His (N); purchased Carna Biosciences, Inc; host or cells: baculovirus expression system
Method in brief: as §1

[4] = target: T4, TYK2 (aa 871-1187, catalytic domain, GST-tag) (Homo sapiens, UniProt P29597); experiment: JAK kinase assay (HTRF, phosphorylation of TK substrate-biotin), TYK2; conditions: ATP at Km (13 μM)
T4 construct: JAK1 (aa 850-1154) and TYK2 (aa 871-1187) are expressed with an N-terminally fused GST-tag; GST (N); purchased Carna Biosciences, Inc; host or cells: baculovirus expression system
T4 sequence (P29597 871-1187): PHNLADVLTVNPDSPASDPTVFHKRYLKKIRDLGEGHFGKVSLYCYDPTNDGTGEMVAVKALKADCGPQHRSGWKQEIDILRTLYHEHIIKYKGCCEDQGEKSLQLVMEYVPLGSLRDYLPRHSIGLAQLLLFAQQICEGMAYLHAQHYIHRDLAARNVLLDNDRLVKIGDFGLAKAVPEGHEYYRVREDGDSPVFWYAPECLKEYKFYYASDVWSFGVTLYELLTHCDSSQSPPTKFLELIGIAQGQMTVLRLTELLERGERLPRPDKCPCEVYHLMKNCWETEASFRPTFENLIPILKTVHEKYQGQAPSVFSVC
Method in brief: as §1

[5] = HTRF assay, read-out: JAK1 kinase inhibitory activity (EC50 indicator)
[6] = HTRF assay, read-out: JAK2 kinase inhibitory activity (EC50 indicator)
[7] = HTRF assay, read-out: JAK3 kinase inhibitory activity (EC50 indicator)
[8] = HTRF assay, read-out: TYK2 kinase inhibitory activity (EC50 indicator)
[9] = read-out: JAK1 kinase inhibitory activity (EC50 indicator)
[10] = read-out: JAK2 kinase inhibitory activity (EC50 indicator)
[11] = read-out: JAK3 kinase inhibitory activity (EC50 indicator)
[12] = read-out: TYK2 kinase inhibitory activity (EC50 indicator)
[13] = HTRF assay, read-out: JAK1 kinase inhibitory activity (EC50)
[14] = HTRF assay, read-out: JAK2 kinase inhibitory activity (EC50)
[15] = HTRF assay, read-out: JAK3 kinase inhibitory activity (EC50)
[16] = HTRF assay, read-out: TYK2 kinase inhibitory activity (EC50)

T1 sequence (P23458 850-1154): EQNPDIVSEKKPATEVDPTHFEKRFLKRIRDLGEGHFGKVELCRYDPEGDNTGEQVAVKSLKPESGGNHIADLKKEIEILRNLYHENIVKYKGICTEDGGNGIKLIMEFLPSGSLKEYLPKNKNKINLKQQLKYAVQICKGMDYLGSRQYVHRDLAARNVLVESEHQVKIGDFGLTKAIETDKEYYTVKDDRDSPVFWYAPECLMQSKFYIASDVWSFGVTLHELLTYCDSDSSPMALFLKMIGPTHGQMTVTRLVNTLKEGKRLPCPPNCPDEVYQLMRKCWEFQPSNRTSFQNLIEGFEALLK
T3 sequence (P52333 822-1111 limits assumed): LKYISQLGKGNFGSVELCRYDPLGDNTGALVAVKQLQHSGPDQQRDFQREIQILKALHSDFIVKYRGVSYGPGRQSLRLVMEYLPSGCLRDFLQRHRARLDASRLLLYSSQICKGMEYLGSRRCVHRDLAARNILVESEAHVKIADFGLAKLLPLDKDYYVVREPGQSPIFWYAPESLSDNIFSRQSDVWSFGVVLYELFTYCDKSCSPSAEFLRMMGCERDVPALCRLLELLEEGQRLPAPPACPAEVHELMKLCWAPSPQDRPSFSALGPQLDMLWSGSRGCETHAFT
T2 sequence (O60674 849-1124 limits assumed): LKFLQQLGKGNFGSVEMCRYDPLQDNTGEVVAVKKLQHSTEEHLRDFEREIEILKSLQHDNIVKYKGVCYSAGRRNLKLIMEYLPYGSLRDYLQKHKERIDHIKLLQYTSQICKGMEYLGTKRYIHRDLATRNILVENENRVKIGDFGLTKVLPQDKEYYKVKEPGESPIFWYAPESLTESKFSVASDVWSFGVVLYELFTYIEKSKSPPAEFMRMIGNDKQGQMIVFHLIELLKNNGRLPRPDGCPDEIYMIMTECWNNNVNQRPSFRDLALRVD

SMILES | pEC50 [1, 5] | pEC50 [2, 6] | pEC50 [3, 7] | pEC50 [4, 8] | pEC50 [1, 9] | pEC50 [2, 10] | pEC50 [3, 11] | pEC50 [4, 12] | also measured
N#CCCCS(=O)(=O)c1ccc(C(=O)N2CCN(c3ncnc4[nH]ccc34)CC23CC3)cc1 [Example 408, 4-{4-[7-(7H-Pyrrolo[2,3-d]pyrimidin-4-yl)-4,7-diaza-spiro[2.5]octane-4-carbonyl]-benzenesulfonyl}-butyronitrile] | > 7.00 | > 7.00 | < 6.30 | < 6.30 | – | – | – | – | –
Cc1nccnc1C(=O)N1[C@@H]2CC[C@H]1CN(c1ncnc3[nH]ccc13)C2 [Example 72, (3-Methyl-pyrazin-2-yl)-[3-(7H-pyrrolo[2,3-d]pyrimidin-4-yl)-3,8-diaza-bicyclo[3.2.1]oct-8-yl]-methanone] | – | – | – | – | 6.30 to 7.00 | > 7.00 | 6.30 to 7.00 | < 6.30 | –
O=C(c1ccc(S(=O)(=O)NCCc2cccs2)cc1)N1CCN(c2ncnc3[nH]ccc23)CC12CC2 [Example 397, 4-[7-(7H-Pyrrolo[2,3-d]pyrimidin-4-yl)-4,7-diaza-spiro[2.5]octane-4-carbonyl]-N-(2-thiophen-2-yl-ethyl)-benzenesulfonamide] | > 7.00 | > 7.00 | 6.30 to 7.00 | 6.30 to 7.00 | – | – | – | – | –
COc1cccc(C(=O)N2CCN(c3ncnc4[nH]ccc34)CC23CC3)c1OC [Example 212, (2,3-Dimethoxy-phenyl)-[7-(7H-pyrrolo[2,3-d]pyrimidin-4-yl)-4,7-diaza-spiro[2.5]oct-4-yl]-methanone] | 6.30 to 7.00 | > 7.00 | < 6.30 | < 6.30 | – | – | – | – | –
Nc1nc(N2CCN(C(=O)Cc3ccc(C(F)(F)F)cc3)C3(CC3)C2)c2cc[nH]c2n1 [Example 309, 1-[7-(2-Amino-7H-pyrrolo[2,3-d]pyrimidin-4-yl)-4,7-diaza-spiro[2.5]oct-4-yl]-2-(4-trifluoromethyl-phenyl)-ethanone] | > 7.00 | > 7.00 | > 7.00 | < 6.30 | – | – | – | – | –
COC(=O)c1cc2c(N3CCN(C(=O)Cc4cccc(CC#N)c4)C4(CC4)C3)ncnc2[nH]1 [Example 121, 4-{4-[2-(3-Cyanomethyl-phenyl)-acetyl]-4,7-diaza-spiro[2.5]oct-7-yl}-7H-pyrrolo[2,3-d]pyrimidine-6-carboxylic acid methyl ester] | – | – | – | – | < 6.30 | < 6.30 | < 6.30 | < 6.30 | –
CC(=O)c1cc(C(=O)N2[C@@H]3CC[C@H]2CN(c2ncnc4[nH]ccc24)C3)cs1 [Example 112, 1-{4-[3-(7H-Pyrrolo[2,3-d]pyrimidin-4-yl)-3,8-diaza-bicyclo[3.2.1]octane-8-carbonyl]-thiophen-2-yl}-ethanone] | – | – | – | – | > 7.00 | > 7.00 | 6.30 to 7.00 | < 6.30 | –
Cc1cc(S(N)(=O)=O)ccc1C(=O)N1CCN(c2ncnc3[nH]ccc23)CC12CC2 [Example 379, 3-Methyl-4-[7-(7H-pyrrolo[2,3-d]pyrimidin-4-yl)-4,7-diaza-spiro[2.5]octane-4-carbonyl]-benzenesulfonamide] | > 7.00 | > 7.00 | > 7.00 | 6.30 to 7.00 | – | – | – | – | –
CC(C)S(=O)(=O)c1ccc(C(=O)N2CCN(c3ncnc4[nH]ccc34)CC23CC3)cc1 [Example 196, [4-(Propane-2-sulfonyl)-phenyl]-[7-(7H-pyrrolo[2,3-d]pyrimidin-4-yl)-4,7-diaza-spiro[2.5]oct-4-yl]-methanone] | – | – | – | – | > 7.00 | > 7.00 | 6.30 to 7.00 | < 6.30 | –
CS(=O)(=O)c1ccc2[nH]c(C(=O)N3CCN(c4ncnc5[nH]ccc45)CC34CC4)cc2c1 [Example 365, (5-Methanesulfonyl-1H-indol-2-yl)-[7-(7H-pyrrolo[2,3-d]pyrimidin-4-yl)-4,7-diaza-spiro[2.5]oct-4-yl]-methanone] | > 7.00 | > 7.00 | > 7.00 | > 7.00 | – | – | – | – | –
O=C(c1cnccn1)N1CCN(c2ncnc3[nH]ccc23)CC12CC2 [Example 19, Pyrazin-2-yl-[7-(7H-pyrrolo[2,3-d]pyrimidin-4-yl)-4,7-diazaspiro[2.5]oct-4-yl]methanone] | – | – | – | – | > 7.00 | > 7.00 | > 7.00 | 6.30 to 7.00 | –
NS(=O)(=O)c1ccc(NCCC(=O)N2CCN(c3ncnc4[nH]ccc34)CC23CC3)cc1 [Example 453, 4-{3-Oxo-3-[7-(7H-pyrrolo[2,3-d]pyrimidin-4-yl)-4,7-diaza-spiro[2.5]oct-4-yl]-propylamino}-benzenesulfonamide] | – | – | – | – | – | – | – | – | pEC50 [1, 13]: > 7.00; pEC50 [2, 14]: > 7.00; pEC50 [3, 15]: 6.30 to 7.00; pEC50 [4, 16]: < 6.30
O=C([C@@H]1CCCc2ccccc21)N1CCN(c2ncnc3[nH]ccc23)CC12CC2 [Example 415, [7-(7H-Pyrrolo[2,3-d]pyrimidin-4-yl)-4,7-diaza-spiro[2.5]oct-4-yl]-(1,2,3,4-tetrahydro-naphthalen-1-yl)-methanone] | 6.30 to 7.00 | 6.30 to 7.00 | < 6.30 | < 6.30 | – | – | – | – | –
O=C(Cc1ccccc1)N1[C@@H]2CC[C@H]1CN(c1ncnc3[nH]ccc13)C2 [Example 32, 2-Phenyl-1-[3-(7H-pyrrolo[2,3-d]pyrimidin-4-yl)-3,8-diazabicyclo[3.2.1]oct-8-yl]ethanone] | – | – | – | – | 6.30 to 7.00 | 6.30 to 7.00 | < 6.30 | < 6.30 | –
O=C(C1CCOC1)N1CCN(c2ncnc3[nH]ccc23)CC12CC2 (centres unmarked) [Example 7, [7-(7H-Pyrrolo[2,3-d]pyrimidin-4-yl)-4,7-diazaspiro[2.5]oct-4-yl]-(tetrahydrofuran-3-yl)methanone] | – | – | – | – | 6.30 to 7.00 | > 7.00 | 6.30 to 7.00 | < 6.30 | –
COC(=O)c1cc2c(N3CCN(C(=O)Cc4ccc(F)cc4)C4(CC4)C3)ncnc2[nH]1 [Example 337, 4-{4-[2-(4-Fluoro-phenyl)-acetyl]-4,7-diaza-spiro[2.5]oct-7-yl}-7H-pyrrolo[2,3-d]pyrimidine-6-carboxylic acid methyl ester] | < 6.30 | < 6.30 | < 6.30 | < 6.30 | – | – | – | – | –
NS(=O)(=O)c1ccc(OCCC(=O)N2CCN(c3ncnc4[nH]ccc34)CC23CC3)cc1 [Example 452, 4-{3-Oxo-3-[7-(7H-pyrrolo[2,3-d]pyrimidin-4-yl)-4,7-diaza-spiro[2.5]oct-4-yl]-propoxy}-benzenesulfonamide] | – | – | – | – | – | – | – | – | pEC50 [1, 13]: > 7.00; pEC50 [2, 14]: > 7.00; pEC50 [3, 15]: > 7.00; pEC50 [4, 16]: < 6.30
COc1cnc2[nH]ccc2c1N1CCN(C(=O)c2cnccn2)C2(CC2)C1 [Example 285, [7-(5-Methoxy-1H-pyrrolo[2,3-b]pyridin-4-yl)-4,7-diaza-spiro[2.5]oct-4-yl]-pyrazin-2-yl-methanone] | < 6.30 | 6.30 to 7.00 | 6.30 to 7.00 | < 6.30 | – | – | – | – | –
CN(C1CCCCC1)S(=O)(=O)N1CCN(c2ncnc3[nH]ccc23)CC12CC2 [Example 460, 7-(7H-Pyrrolo[2,3-d]pyrimidin-4-yl)-4,7-diaza-spiro[2.5]octane-4-sulfonic acid cyclohexyl-methyl-amide] | – | – | – | – | – | – | – | – | pEC50 [1, 13]: > 7.00; pEC50 [2, 14]: > 7.00; pEC50 [3, 15]: 6.30 to 7.00; pEC50 [4, 16]: 6.30 to 7.00
N#CCCCC(=O)N1CCN(c2ncnc3[nH]ccc23)CC12CC2 [Example 298, 5-Oxo-5-[7-(7H-pyrrolo[2,3-d]pyrimidin-4-yl)-4,7-diaza-spiro[2.5]oct-4-yl]-pentanenitrile] | > 7.00 | > 7.00 | > 7.00 | 6.30 to 7.00 | – | – | – | – | –
